Earlier results in patent US20240130675A1, “Methods for Treating Autism Spectrum Disorder” (The General Hospital Corporation, priority 2021, published 2024).
Where a name gives a salt, the structure may show the parent alone.

What was measured:
ASD = conditions: in vivo; cited from earlier work
[1] = system: older adolescents and young adults with ASDs; conditions: cited from earlier work
ASD children = conditions: cited from earlier work
youth with ASD = conditions: cited from earlier work
ASD symptoms [2] = conditions: 5-19 year-olds, four weeks; only reflected in CGI, not in ABC-CV; cited from earlier work
ASD symptoms [3] = conditions: RCT; cited from earlier work
autism = conditions: RUPP Autism Network study; cited from earlier work

## N[C@@H]1CONC1=O [D-Cycloserine]
ASD
  Social Responsiveness Scale and Aberrant Behavior Checklist: statistically and clinically significant improvement
[1]
  Stereotypic symptoms, Aberrant Behavior Checklist subscale 3: improved stereotypic symptoms

## CC(=O)N[C@@H](CS)C(=O)O [NAC, N-Acetylcysteine]
ASD children
  ABC irritability subscale score vs placebo: significant improvement
Youth with ASD
  Social impairment: no significant impact on social impairment

## NC12CC3CC(CC(C3)C1)C2 [amantadine hydrochloride]
ASD symptoms [2]
  ASD symptoms vs placebo: improvement in ASD symptoms

## Nc1nnc(-c2cccc(Cl)c2Cl)c(N)n1 [lamotrigine]
ASD symptoms [3]
  Improvements vs placebo on Autism Behavior Checklist, Aberrant Behavior Checklist, Vineland, PL-ADOS, CARS: no significant differences in improvements

## Cc1nc2n(c(=O)c1CCN1CCC(c3noc4cc(F)ccc34)CC1)CCCC2 [risperidone]
autism
  Response rate, treatment group: 69.4%
